Experimental data: US12495798B2, “Nicotinamide compound and herbicidal composition comprising compound” (KOREA RESEARCH INSTITUTE OF CHEMICAL TECHNOLOGY, priority 2019, dated 2025)

What was measured:
Type in all cases: in vivo
fall panicum [1] = test: Herbicidal activity test against upland field weeds (foliar treatment test); design: key to Foliar treatment herbicidal activity, Fall panicum: 0 (no control); 100 (complete control); conditions: 50 g ai/ha, scale 0-100; for pest or weed control at 50 g/ha: Panicum dichotomiflorum
Procedure, shortened: (§1)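 Visual 0–100 control ratings relative to untreated plants, taken 14 (or 21) days after spraying foliage at 50 or 75 g a.i./ha. Spray solution: 50% acetone with 0.1% Tween-20; plants kept in greenhouse at 30±5 °C, 14 h light/10 h dark.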

barnyard grass [2] = test: as above; design: key to Foliar treatment herbicidal activity, barnyard grass: 0 (no control); 100 (complete control); conditions: 50 g ai/ha, scale 0-100; for pest or weed control at 50 g/ha: Echinochloa crus-galli
Procedure, shortened: as §1

quack grass [3] = test: as above; design: key to Foliar treatment herbicidal activity, quack grass: 0 (no control); 100 (complete control); conditions: 50 g ai/ha, scale 0-100
Procedure, shortened: as §1

indian jointvetch [4] = test: Herbicidal activity test against upland field weeds (soil treatment test); design: key to Soil treatment herbicidal activity, Indian jointvetch: 0 (no control); 100 (complete control); conditions: 50 g ai/ha, scale 0 (no control) to 100 (complete control)
Experimental: (§2) Experimental Example 2: Herbicidal Activity Test Against Upland Field Weeds (Soil Treatment Test) Soil treatment was performed as follows: After filling a square plastic pot having a surface area of 350 cm^2 with sandy loam mixed with 1 g per pot (350 cm^2) of horticultural mixed fertilizer (N:P:K=11:10:11), seeds (10˜15 grains) or rootstocks (2 pieces) of 5 kinds of grassy weeds of sorghum, barnyard grass, quack grass, crabgrass, fall panicum, and 5 kinds of broadleaf weeds of black nightshade, indian jointvetch, velvetleaf, cocklebur, bindweed, which had been stored in a low temperature (6° C.), were sown. The day after sowing, test compound solutions were made by diluting with a preparation solution (including 50% acetone, 0.1% Tween-20) so that the final treatment amount of the test compounds was 50 or 75 g a.i./ha. The prepared test compound solution was used for treating soil surface by hand-spraying 14 mL per pot in a fume hood. After the treatment, it was managed under the same greenhouse conditions (average temperature 30±5° C., light/dark=14/10 hours), and after 14 days (after 21 days if necessary), the external symptoms and efficacy were investigated according to the scale of 0 (no control) to 100 (complete control). The results of Table 8 were obtained by evaluating weed control value to the untreated control by conducting visual assessment.

velvetleaf [5] = test: Herbicidal activity test against upland field weeds (foliar treatment test); design: key to Foliar treatment herbicidal activity, velvet leaf: 0 (no control); 100 (complete control); conditions: 50 g ai/ha; for Foliar treatment herbicidal activity, velvet leaf: scale 0-100; for pest or weed control at 50 g/ha: Abutilon theophrasti, scale 0-100, read-out: Foliar treatment herbicidal activity, velvet leaf
Procedure, shortened: as §1

crabgrass [6] = test: as above; design: key to Foliar treatment herbicidal activity, Crabgrass: 0 (no control); 100 (complete control); conditions: 50 g ai/ha, scale 0-100; for pest or weed control at 50 g/ha: Digitaria sanguinalis
Procedure, shortened: as §1

indian jointvetch [7] = test: as above; design: key to Foliar treatment herbicidal activity, Indian jointvetch: 0 (no control); 100 (complete control); conditions: 50 g ai/ha, scale 0-100
Procedure, shortened: as §1

crabgrass [8] = test: Herbicidal activity test against upland field weeds (soil treatment test); design: key to Soil treatment herbicidal activity, Crabgrass: 0 (no control); 100 (complete control); conditions: 50 g ai/ha, scale 0 (no control) to 100 (complete control); for pest or weed control at 50 g/ha: Digitaria sanguinalis
Experimental: as §2

barnyard grass [9] = test: as above; design: key to Soil treatment herbicidal activity, barnyard grass: 0 (no control); 100 (complete control); conditions: 50 g ai/ha, scale 0 (no control) to 100 (complete control)
Experimental: as §2

black nightshade [10] = test: as above; design: key to Soil treatment herbicidal activity, black nightshade: 0 (no control); 100 (complete control); conditions: 50 g ai/ha, scale 0 (no control) to 100 (complete control)
Experimental: as §2

sorghum [11] = test: Herbicidal activity test against upland field weeds (foliar treatment test); design: key to Foliar treatment herbicidal activity, Sorghum: 0 (no control); 100 (complete control); conditions: 50 g ai/ha, scale 0-100; for plant injury at 50 g/ha: Sorghum
Procedure, shortened: as §1

bindweed [12] = test: Herbicidal activity test against upland field weeds (soil treatment test); design: key to Soil treatment herbicidal activity, Bindweed: 0 (no control); 100 (complete control); conditions: 50 g ai/ha, scale 0 (no control) to 100 (complete control)
Experimental: as §2

velvetleaf [13] = test: as above; design: key to Soil treatment herbicidal activity, velvet leaf: 0 (no control); 100 (complete control); conditions: 50 g ai/ha, scale 0 (no control) to 100 (complete control)
Experimental: as §2

fall panicum [14] = test: as above; design: key to Soil treatment herbicidal activity, Fall panicum: 0 (no control); 100 (complete control); conditions: 50 g ai/ha, scale 0 (no control) to 100 (complete control)
Experimental: as §2

quack grass [15] = test: as above; design: key to Soil treatment herbicidal activity, quack grass: 0 (no control); 100 (complete control); conditions: 50 g ai/ha, scale 0 (no control) to 100 (complete control)
Experimental: as §2

bindweed [16] = test: Herbicidal activity test against upland field weeds (foliar treatment test); design: key to Foliar treatment herbicidal activity, Bindweed: 0 (no control); 100 (complete control); conditions: 50 g ai/ha, scale 0-100
Procedure, shortened: as §1

sorghum [17] = test: Herbicidal activity test against upland field weeds (soil treatment test); design: key to Soil treatment herbicidal activity, Sorghum: 0 (no control); 100 (complete control); conditions: 50 g ai/ha, scale 0 (no control) to 100 (complete control)
Experimental: as §2

cocklebur = test: Herbicidal activity test against upland field weeds (foliar treatment test); design: key to Foliar treatment herbicidal activity, Cocklebur: 0 (no control); 100 (complete control); conditions: 50 g ai/ha, scale 0-100; for pest or weed control at 50 g/ha: Xanthium strumarium
Procedure, shortened: as §1

black nightshade [18] = test: as above; design: key to Foliar treatment herbicidal activity, black nightshade: 0 (no control); 100 (complete control); conditions: 50 g ai/ha, scale 0-100; for pest or weed control at 50 g/ha: Solanum nigrum
Procedure, shortened: as §1

Row | SMILES | pest or weed control at 50 g/ha (fall panicum [1]) | Foliar treatment herbicidal activity, barnyard grass (barnyard grass [2]) | Soil treatment herbicidal activity, Indian jointvetch (indian jointvetch [4]) | Foliar treatment herbicidal activity, velvet leaf (velvetleaf [5]) | Foliar treatment herbicidal activity, Crabgrass (crabgrass [6]) | Foliar treatment herbicidal activity, Indian jointvetch (indian jointvetch [7]) | Soil treatment herbicidal activity, Crabgrass (crabgrass [8]) | Soil treatment herbicidal activity, barnyard grass (barnyard grass [9]) | Soil treatment herbicidal activity, black nightshade (black nightshade [10]) | plant injury at 50 g/ha (sorghum [11]) | pest or weed control at 50 g/ha (bindweed [12]) | Soil treatment herbicidal activity, velvet leaf (velvetleaf [13]) | Soil treatment herbicidal activity, Fall panicum (fall panicum [14]) | Foliar treatment herbicidal activity, Bindweed (bindweed [16]) | Soil treatment herbicidal activity, Sorghum (sorghum [17]) | Foliar treatment herbicidal activity, Cocklebur (cocklebur) | Foliar treatment herbicidal activity, quack grass (quack grass [3]) | pest or weed control at 50 g/ha (black nightshade [18]) | pest or weed control at 50 g/ha (velvetleaf [5]) | Soil treatment herbicidal activity, quack grass (quack grass [15]) | other results
1 | CN(Cc1nnnn1C)c1nc(C(F)(F)F)ccc1C(=O)Nc1nnnn1C [Compound No. 1-27, 2-(methyl((1-methyl-1H-tetrazol-5-yl)methyl)amino)-N-(1-methyl-1H-tetrazol-5-yl)-6-(trifluoromethyl)nicotinamide] | 80% | 100 | 100 | 100 | 100 | 100 | 100 | 100 | 100 | 80% | 80% | 100 | 100 | 100 | 100 | 100 |  |  |  |  | pest or weed control at 50 g/ha (quack grass [3]): 30%; pest or weed control at 50 g/ha (quack grass [15]): 20%
2 | Cn1cnc(COCc2nc(C(F)(F)C(F)(F)F)ccc2C(=O)Nc2nnnn2C)n1 [Compound No. 2-83, 2-(((1-methyl-1H-1,2,4-triazol-3-yl)methoxy)methyl)-N-(1-methyl-1H-tetrazol-5-yl)-6-(perfluoroethyl)nicotinamide] | 70% |  |  |  |  |  |  | 0 | 100 | 20% | 40% | 100 |  |  | 0 |  | 0 | 98% | 70% | 0 | pest or weed control at 50 g/ha (barnyard grass [2]): 90%; pest or weed control at 50 g/ha (indian jointvetch [4]): 80%; pest or weed control at 50 g/ha (crabgrass [6]): 70%; pest or weed control at 50 g/ha (indian jointvetch [7]): 70%; pest or weed control at 50 g/ha (crabgrass [8]): 70%; pest or weed control at 50 g/ha (fall panicum [14]; Panicum dichotomiflorum): 60%; pest or weed control at 50 g/ha (bindweed [16]): 40%; pest or weed control at 50 g/ha (cocklebur): 60%
3 | CC(OC(=O)OC1CCCCC1)N(C(=O)c1ccc(C(F)(F)F)nc1COCc1nnn(C)n1)c1nnnn1C (centres unmarked) [Compound No. 4-11, cyclohexyl(1-(N-(1-methyl-1H-tetrazol-5-yl)-2-(((2-methyl-2H-tetrazol-5-yl)methoxy)methyl)-6-(trifluoromethyl)nicotinamido)ethyl)carbonate] |  | 98 | 40 | 100 | 98 | 98 | 100 | 100 | 100 |  |  | 100 | 60 | 100 | 0 | 98 | 0 |  |  | 0 | Foliar treatment herbicidal activity, Fall panicum (fall panicum [1]): 95; Foliar treatment herbicidal activity, black nightshade (black nightshade [18]): 100; Foliar treatment herbicidal activity, Sorghum (sorghum [11]): 60; Soil treatment herbicidal activity, Bindweed (bindweed [12]): 0
4 | Cn1cnc(COc2nc(C(F)(F)F)ccc2C(=O)Nc2nnnn2C)n1 [Compound No. 2-43, 2-((1-methyl-1H-1,2,4-triazol-3-yl)methoxy)-N-(1-methyl-1H-tetrazol-5-yl)-6-(trifluoromethyl)nicotinamide] | 50% |  |  |  |  |  | 0 | 0 |  | 20% |  |  | 0 |  | 0 |  | 0 | 95% | 40% | 0 | pest or weed control at 50 g/ha (barnyard grass [2]): 60%; pest or weed control at 50 g/ha (indian jointvetch [4]): 20%; pest or weed control at 50 g/ha (crabgrass [6]): 30%; pest or weed control at 50 g/ha (indian jointvetch [7]): 20%; Soil treatment herbicidal activity, Bindweed (bindweed [12]): 0; pest or weed control at 50 g/ha (velvetleaf [13]; Abutilon theophrasti, read-out: Soil treatment herbicidal activity, velvet leaf): 30%; pest or weed control at 50 g/ha (bindweed [16]): 30%; pest or weed control at 50 g/ha (cocklebur): 20%
5 | CCOC(=O)OC(C)N(C(=S)c1ccc(C(F)(F)F)nc1CSCc1nnn(C)n1)c1nnnn1C (centres unmarked) [Compound No. 4-9, ethyl (1-(N-(1-methyl-1H-tetrazol-5-yl)-2-((((2-methyl-2H-tetrazol-5-yl)methyl)thio)methyl)-6-(trifluoromethyl)pyridin-3-carbothioamido)ethyl)carbonate] |  | 100 | 100 | 98 | 98 | 98 | 0 | 0 | 100 |  |  | 100 | 0 | 100 | 0 | 100 | 0 |  |  | 0 | Foliar treatment herbicidal activity, Fall panicum (fall panicum [1]): 90; Foliar treatment herbicidal activity, black nightshade (black nightshade [18]): 98; Foliar treatment herbicidal activity, Sorghum (sorghum [11]): 70
6 | CN(C(=O)c1ccc(C(F)(F)F)nc1OCc1nnnn1C(F)F)c1nnnn1C [Compound No. 1-8, 2-((1-(difluoromethyl)-1H-tetrazol-5-yl)methoxy)-N-methyl-N-(1-methyl-1H-tetrazol-5-yl)-6-(trifluoromethyl)nicotinamide] |  | 0 | 100 |  | 0 |  |  | 0 | 0 |  | 50% | 100 | 0 |  | 0 |  |  | 98% | 20% | 0 | Foliar treatment herbicidal activity, Fall panicum (fall panicum [1]): 0; pest or weed control at 50 g/ha (indian jointvetch [7]): 70%; pest or weed control at 50 g/ha (crabgrass [8]): 30%; Foliar treatment herbicidal activity, Sorghum (sorghum [11]): 0; pest or weed control at 50 g/ha (bindweed [16]): 40%; pest or weed control at 50 g/ha (cocklebur): 20%
